# From patent publication US20220041572A1, “CYCLOHEPTYL ACIDS AS LPA ANTAGONISTS” (BRISTOL-MYERS SQUIBB COMPANY, priority 2018, published 2022)
# System: CTGF
# Assay: not given
# Details: MCT cells, co-treatment with LPA; cited from earlier work
row,SMILES,LPA induction of CTGF expression
1,Cc1noc(-c2ccc(CSCCC(=O)O)cc2)c1NC(=O)OC(C)c1ccccc1Cl (stereo not drawn) [Ki16425],almost completely suppressed

# System: pancreatic cancer cell lines
# Assay: not given
# Details: Yamada et al 2004; cited from earlier work
row,SMILES,in vitro migration in response to LPA and peritoneal fluid (ascites) from pancreatic cancer patients
1,Cc1noc(-c2ccc(CSCCC(=O)O)cc2)c1NC(=O)OC(C)c1ccccc1Cl (stereo not drawn) [Ki16425],effectively blocked

# System: nerve-injured mice
# Assay: not given
# Details: pretreatment, Inoue et al 2004; cited from earlier work
row,SMILES,allodynia and hyperalgesia
1,C[C@@H](N)[C@H]1CC[C@H](C(=O)Nc2ccncc2)CC1 [Example Y-27632],completely abolished

# System: human foetal lung fibroblasts
# Assay: not given
# Details: Tager et al. Nature Medicine 2008; cited from earlier work
row,SMILES,chemotaxis of human foetal lung fibroblasts induced by BAL from IPF patients
1,Cc1noc(-c2ccc(CSCCC(=O)O)cc2)c1NC(=O)OC(C)c1ccccc1Cl (stereo not drawn) [Ki16425],blocked

# System: UUO mice
# Assay: not given
# Details: compared with LPA1 (−/−) mice; cited from earlier work
row,SMILES,renal fibrosis profile of treated UUO mice
1,Cc1noc(-c2ccc(CSCCC(=O)O)cc2)c1NC(=O)OC(C)c1ccccc1Cl (stereo not drawn) [Ki16425],closely resembled the profile of LPA1 (−/−) mice

# Target: T1, human LPA1 (Homo sapiens, UniProt Q92633)
# T1 construct: expressed in transfected cells; host or cells: Chinese hamster ovary (CHO) cells
# Assay: LPA1 functional antagonist assay (LPA-induced calcium flux)
# Format: cell-based
# Details: CHO cells overexpressing human LPA1; inhibition of calcium flux induced by 10 nM LPA; read-out: hLPA1 IC50
# Description: The effectiveness of compounds of the present invention as LPA1 inhibitors can be determined in an LPA1 functional antagonist assay as follows:
# Chinese hamster ovary cells overexpressing human LPA1 were plated overnight (15,000 cells/well) in poly-D-lysine coated 384-well microplates (Greiner bio-one, Cat#781946) in DMEM/F12 medium (Gibco, Cat#11039). Following overnight culture, cells were loaded with calcium indicator dye (AAT Bioquest Inc, Cat#34601) for 30 minutes at 37° C. The cells were then equilibrated to room temperature for 30 minutes before the assay. Test compounds solubilized in DMSO were transferred to 384 well non-binding surface plates (Coming, Cat#3575) using the Labcyte Echo acoustic dispense and diluted with assay buffer [1X HBSS with calcium/magnesium (Gibco Cat#14025-092), 20 mM HEPES (Gibco Cat#15630-080) and 0.1% fatty acid free BSA (Sigma Cat#A9205)] to a final concentration of 0.5% DMSO. Diluted compounds were added to the cells by FDSS6000 (Hamamatsu) at final concentrations ranging from 0.08 nM to 5 μM. and were then incubated for 20 min at room temperature at which time LPA (Avanti Polar Lipids Cat#857130C) was added at final concentrations of 10 nM to stimulate the cells. The compound IC50 value was defined as the concentration of test compound which inhibited 50% of the calcium flux induced by LPA alone. IC50 values were determined by fitting data to a 4-parameter logistic equation (GraphPad Prism, San Diego Calif.).
# T1 sequence (Q92633 whole entry): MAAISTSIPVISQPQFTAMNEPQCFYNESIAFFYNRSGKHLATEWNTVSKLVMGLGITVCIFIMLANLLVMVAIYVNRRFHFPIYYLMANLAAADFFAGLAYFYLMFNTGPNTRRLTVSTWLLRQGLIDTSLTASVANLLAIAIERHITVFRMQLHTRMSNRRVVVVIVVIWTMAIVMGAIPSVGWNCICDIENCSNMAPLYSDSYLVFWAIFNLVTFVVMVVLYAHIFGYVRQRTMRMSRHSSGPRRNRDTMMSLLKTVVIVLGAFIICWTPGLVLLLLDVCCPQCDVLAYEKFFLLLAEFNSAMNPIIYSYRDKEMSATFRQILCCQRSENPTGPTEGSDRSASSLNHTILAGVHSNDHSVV
row,IC50 [nM],SMILES
1,32,"CCc1cc(OCc2c(-c3ccc(OC4CCCCC(C(=O)O)C4)c(C)n3)nnn2C)ncn1 (racemic) [Example 15, (±)-3-((6-(5-(((6-ethylpyrimidin-4-yl)oxy)methyl)-1-methyl-1H-1,2,3-triazol-4-yl)-2-methylpyridin-3-yl)oxy)cycloheptane-1-carboxylic Acid]"
2,53,"Cc1nc(-c2nnn(C)c2NC(=O)O[C@H](C)c2ccccc2)ccc1OC1CCCCC(C(=O)O)C1 (mixture of isomers) [Example 22, (±)-3-((2-methyl-6-(1-methyl-5-((((R)-1-phenylethoxy)carbonyl)amino)-1H-1,2,3-triazol-4-yl)pyridin-3-yl)oxy)cycloheptane-1-carboxylic Acid]"
3,88,Cc1nc(-c2nnn(C)c2COC(=O)N(C)CC(C)C)ccc1OC1CCCCC(C(=O)O)C1 (stereo not drawn) [Example 10]
4,36,Cc1nc(-c2nnn(C)c2COC(=O)N(C)CCC(C)C)ccc1OC1CCCCC(C(=O)O)C1 (stereo not drawn) [Example 11]
5,25,Cc1nc(-c2nnn(C)c2COC(=O)N(C)CCC(C)C)ccc1OC1CCCCC(C(=O)O)C1 (stereo not drawn) [Example 12]
6,51,Cc1nc(-c2nnn(C)c2COC(=O)N(C)C2CCC2)ccc1OC1CCCCC(C(=O)O)C1 (stereo not drawn) [Example 13]
7,20,Cc1nc(-c2nnn(C)c2COC(=O)N(C)C2CCC2)ccc1OC1CCCCC(C(=O)O)C1 (stereo not drawn) [Example 14]
8,154,Cc1nc(-c2nnn(C)c2COc2cc(C(C)(C)C)ncn2)ccc1OC1CCCCC(C(=O)O)C1 (stereo not drawn) [Example 16]
9,325,Cc1nc(-c2nnn(C)c2COc2cc(C(C)(C)C)ncn2)ccc1OC1CCCCC(C(=O)O)C1 (stereo not drawn) [Example 17]
10,145,Cc1nc(-c2nnn(C)c2COc2cc(C(C)C)ncn2)ccc1OC1CCCCC(C(=O)O)C1 (stereo not drawn) [Example 18]
11,48,Cc1nc(-c2nnn(C)c2COc2cc(C(C)C)ncn2)ccc1OC1CCCCC(C(=O)O)C1 (stereo not drawn) [Example 19]
12,67,COc1cc(OCc2c(-c3ccc(OC4CCCCC(C(=O)O)C4)c(C)n3)nnn2C)ncn1 (stereo not drawn) [Example 20]
13,26,COc1cc(OCc2c(-c3ccc(OC4CCCCC(C(=O)O)C4)c(C)n3)nnn2C)ncn1 (stereo not drawn) [Example 21]
14,127,Cc1nc(-c2nnn(C)c2NC(=O)OCC2CC2)ccc1OC1CCCCC(C(=O)O)C1 (stereo not drawn) [Example 23]
15,91,Cc1nc(-c2nnn(C)c2NC(=O)OCC(C)C)ccc1OC1CCCCC(C(=O)O)C1 (stereo not drawn) [Example 24]

# The next lines start with the compound.
row,SMILES,IC50 [nM]
1,"Cc1nc(-c2nnn(C)c2COC(=O)N(C)Cc2ccccc2)ccc1OC1CCCCC(C(=O)O)C1 (racemic) [Example 1, (±)-3-((6-(5-(((benzyl(methyl)carbamoyl)oxy)methyl)-1-methyl-1H-1,2,3-triazol-4-yl)-2-methylpyridin-3-yl)oxy)cycloheptane-1-carboxylic Acid]",16
2,"Cc1nc(-c2nnn(C)c2COC(=O)N(C)CC2CCC2)ccc1O[C@@H]1CCCC[C@@H](C(=O)O)C1 (single isomer, unassigned) [Example 2]",9.5
3,"Cc1nc(-c2nnn(C)c2COC(=O)N(C)CC2CCC2)ccc1O[C@@H]1CCCC[C@@H](C(=O)O)C1 (single isomer, unassigned) [Example 3]",108
4,"Cc1nc(-c2nnn(C)c2COC(=O)N(C)CC2CCC2)ccc1O[C@@H]1CCCC[C@H](C(=O)O)C1 (single isomer, unassigned) [Example 4]",19
5,"Cc1nc(-c2nnn(C)c2COC(=O)N(C)CC2CCC2)ccc1O[C@@H]1CCCC[C@H](C(=O)O)C1 (single isomer, unassigned) [Example 5]",296
6,CCCN(C)C(=O)OCc1c(-c2ccc(OC3CCCCC(C(=O)O)C3)c(C)n2)nnn1C (stereo not drawn) [Example 6],117
7,Cc1nc(-c2nnn(C)c2COC(=O)N(C)CC2CC2)ccc1OC1CCCCC(C(=O)O)C1 (stereo not drawn) [Example 7],11
8,Cc1nc(-c2nnn(C)c2COC(=O)N(C)C2CCCC2)ccc1OC1CCCCC(C(=O)O)C1 (stereo not drawn) [Example 8],11
9,Cc1nc(-c2nnn(C)c2COC(=O)N(C)CC(C)C)ccc1OC1CCCCC(C(=O)O)C1 (stereo not drawn) [Example 9],16

# System: highly peritoneal metastatic pancreatic cancer cell line
# Assay: not given
# Details: Yamada et al 2004; cited from earlier work
row,SMILES,LPA-induced and ascites-induced invasion activity
1,Cc1noc(-c2ccc(CSCCC(=O)O)cc2)c1NC(=O)OC(C)c1ccccc1Cl (stereo not drawn) [Ki16425],blocked
